Test results taken from patent US9724355B2, “Fulvestrant compositions and methods of use” (SHIMODA BIOTECH (PTY) LTD, priority 2010, dated 2017).

Experiment: Fulvestrant aqueous solubility in the presence and absence of cyclodextrins (excess drug, shaken 24 h, filtered, HPLC)
Type: physicochemical
Conditions: for True Fulvestrant Concentration: 22° C., 24 h; for Average Concentration / Quantity of Fulvestrant Diluted Run 1 / Quantity of Fulvestrant Diluted Run 2: diluted sample
Experimental: The HPLC system used for the chromatographic determination of fulvestrant consisted of a Waters 600E quaternary gradient pump, a Waters 717plus WISP auto-sampler and a Waters 2487 Dual A, Absorbance detector. Separation was performed using a Phenomenex Luna C18 column (250×4.6 mm; 5 urn) (Phenomenex, Torrance, Calif.) (supplied by Separations, South Africa) and a mobile phase consisting of 50% MeCN:22.5% ddH2O :27.5% MeOH. The mobile phase was degassed and filtered prior to use. […] Sample run times were 15 minutes. The UV detector wavelength was set to 280 nm.
(§1) 1 mL of each of the following aqueous solutions was prepared containing 0; 25; 50; 75 and 100 mg/mL ACD in ddHiO. Excess fulvestrant was added to each of these solutions and the samples were shaken for 24 hours on an orbital shaker at 200 rpm and at 22° C. room temperature. Excess fulvestrant was present in all samples at all times. After 24-hours, the samples were filtered through 0.45 μm syringe tip filters, diluted according to requirements and assayed by HPLC.
as §1, with “5; 7.5; 10” for “25; 50; 75”, “15” for “100”, “BCD” for “ACD”, “ddH2O.” for “ddHiO.”
as §1, with “0;” for “0; 25;”, “100; 150; 200; 250; 300; 350” for “75”, “400” for “100”, “MBCD” for “ACD”, “ddH2O.” for “ddHiO.”
as §1, with “0;” for “0; 25;”, “100; 150; 200; 250; 300; 350” for “75”, “400” for “100”, “HPBCD” for “ACD”, “ddH2O.” for “ddHiO.”
as §1, with “0;” for “0; 25;”, “100; 150; 200; 250; 300; 350” for “75”, “400” for “100”, “SBEBCD” for “ACD”, “ddH2O.” for “ddHiO.”
as §1, with “0;” for “0; 25;”, “100; 150;” for “75”, “200” for “100”, “GCD” for “ACD”, “ddHO.” for “ddHiO.”
as §1, with “0;” for “0; 25;”, “100; 150; 200; 250; 300; 350” for “75”, “400” for “100”, “HPGCD” for “ACD”, “ddH2O.” for “ddHiO.”

True Fulvestrant Concentration (0 mg/mL ACD in ddH2O): <0.010 mg/mL | Average Concentration (0 mg/mL ACD): <10.00 µg/mL | Quantity of Fulvestrant Diluted Run 1 (0 mg/mL ACD): <10.000 µg/mL | Quantity of Fulvestrant Diluted Run 2 (0 mg/mL ACD): <10.010 µg/mL | True Fulvestrant Concentration (0 mg/mL BCD in ddH2O): <0.010 mg/mL | Average Concentration (0 mg/mL BCD): <10.00 µg/mL | Quantity of Fulvestrant Diluted Run 1 (0 mg/mL BCD): <10.000 µg/mL | Quantity of Fulvestrant Diluted Run 2 (0 mg/mL BCD): <10.000 µg/mL | True Fulvestrant Concentration (0 mg/mL GCD in ddH2O): <0.010 mg/mL | Average Concentration (0 mg/mL GCD): <10.00 µg/mL | Quantity of Fulvestrant Diluted Run 1 (0 mg/mL GCD): <10.000 µg/mL | Quantity of Fulvestrant Diluted Run 2 (0 mg/mL GCD): <10.000 µg/mL | True Fulvestrant Concentration (0 mg/mL HPBCD in ddH2O): <0.010 mg/mL | Average Concentration (0 mg/mL HPBCD): <10.00 µg/mL | Quantity of Fulvestrant Diluted Run 1 (0 mg/mL HPBCD): <10.00 µg/mL | Quantity of Fulvestrant Diluted Run 2 (0 mg/mL HPBCD): <10.00 µg/mL | True Fulvestrant Concentration (0 mg/mL HPGCD in ddH2O): <0.010 mg/mL | Average Concentration (0 mg/mL HPGCD): <10.00 µg/mL | Quantity of Fulvestrant Diluted Run 1 (0 mg/mL HPGCD): <10.00 µg/mL | Quantity of Fulvestrant Diluted Run 2 (0 mg/mL HPGCD): <10.00 µg/mL | True Fulvestrant Concentration (0 mg/mL MBCD in ddH2O): <0.010 mg/mL | Average Concentration (0 mg/mL MBCD): <10.00 µg/mL | Quantity of Fulvestrant Diluted Run 1 (0 mg/mL MBCD): <10.00 µg/mL | Quantity of Fulvestrant Diluted Run 2 (0 mg/mL MBCD): <10.00 µg/mL | Average Concentration (0 mg/mL SBEBCD): <10.00 µg/mL | Quantity of Fulvestrant Diluted Run 1 (0 mg/mL SBEBCD): <10.00 µg/mL | Quantity of Fulvestrant Diluted Run 2 (0 mg/mL SBEBCD): <10.00 µg/mL | True Fulvestrant Concentration (5 mg/mL BCD in ddH2O): <0.010 mg/mL | Average Concentration (5 mg/mL BCD): <10.00 µg/mL | Quantity of Fulvestrant Diluted Run 1 (5 mg/mL BCD): <10.000 µg/mL | Quantity of Fulvestrant Diluted Run 2 (5 mg/mL BCD): <10.000 µg/mL | True Fulvestrant Concentration (10 mg/mL BCD in ddH2O): <0.010 mg/mL | Average Concentration (10 mg/mL BCD): <10.00 µg/mL | Quantity of Fulvestrant Diluted Run 1 (10 mg/mL BCD): <10.000 µg/mL | Quantity of Fulvestrant Diluted Run 2 (10 mg/mL BCD): <10.000 µg/mL | True Fulvestrant Concentration (15 mg/mL BCD in ddH2O): 0.013 mg/mL | Average Concentration (15 mg/mL BCD): 13.00 µg/mL | Quantity of Fulvestrant Diluted Run 1 (15 mg/mL BCD): 13.060 µg/mL | Quantity of Fulvestrant Diluted Run 2 (15 mg/mL BCD): 12.940 µg/mL | True Fulvestrant Concentration (25 mg/mL ACD in ddH2O): 0.033 mg/mL | Average Concentration (25 mg/mL ACD): 33.30 µg/mL | Quantity of Fulvestrant Diluted Run 1 (25 mg/mL ACD): 33.620 µg/mL | Quantity of Fulvestrant Diluted Run 2 (25 mg/mL ACD): 32.970 µg/mL | True Fulvestrant Concentration (50 mg/mL ACD in ddH2O): 0.111 mg/mL | Average Concentration (50 mg/mL ACD): 110.74 µg/mL | Quantity of Fulvestrant Diluted Run 1 (50 mg/mL ACD): 110.600 µg/mL | Quantity of Fulvestrant Diluted Run 2 (50 mg/mL ACD): 110.880 µg/mL | True Fulvestrant Concentration (50 mg/mL GCD in ddH2O): 0.011 mg/mL | Average Concentration (50 mg/mL GCD): 10.62 µg/mL | Quantity of Fulvestrant Diluted Run 1 (50 mg/mL GCD): 10.700 µg/mL | Quantity of Fulvestrant Diluted Run 2 (50 mg/mL GCD): 10.530 µg/mL | True Fulvestrant Concentration (50 mg/mL HPBCD in ddH2O): 0.210 mg/mL | Average Concentration (50 mg/mL HPBCD): 20.95 µg/mL | Quantity of Fulvestrant Diluted Run 1 (50 mg/mL HPBCD): 21.09 µg/mL | Quantity of Fulvestrant Diluted Run 2 (50 mg/mL HPBCD): 20.81 µg/mL | True Fulvestrant Concentration (50 mg/mL HPGCD in ddH2O): 0.037 mg/mL | Average Concentration (50 mg/mL HPGCD): 38.32 µg/mL | Quantity of Fulvestrant Diluted Run 1 (50 mg/mL HPGCD): 38.66 µg/mL | Quantity of Fulvestrant Diluted Run 2 (50 mg/mL HPGCD): 37.97 µg/mL | True Fulvestrant Concentration (50 mg/mL MBCD in ddH2O): 0.750 mg/mL | Average Concentration (50 mg/mL MBCD): 74.99 µg/mL | Quantity of Fulvestrant Diluted Run 1 (50 mg/mL MBCD): 74.61 µg/mL | Quantity of Fulvestrant Diluted Run 2 (50 mg/mL MBCD): 75.37 µg/mL | True Fulvestrant Concentration (50 mg/mL SBEBCD in ddH2O): 0.077 mg/mL | Average Concentration (50 mg/mL SBEBCD): 77.30 µg/mL | Quantity of Fulvestrant Diluted Run 1 (50 mg/mL SBEBCD): 76.98 µg/mL | Quantity of Fulvestrant Diluted Run 2 (50 mg/mL SBEBCD): 77.61 µg/mL | True Fulvestrant Concentration (75 mg/mL ACD in ddH2O): 0.310 mg/mL | Average Concentration (75 mg/mL ACD): 310.32 µg/mL | Quantity of Fulvestrant Diluted Run 1 (75 mg/mL ACD): 310.460 µg/mL | Quantity of Fulvestrant Diluted Run 2 (75 mg/mL ACD): 310.170 µg/mL | True Fulvestrant Concentration (100 mg/mL ACD in ddH2O): 1.683 mg/mL | Average Concentration (100 mg/mL ACD): 168.26 µg/mL | Quantity of Fulvestrant Diluted Run 1 (100 mg/mL ACD): 162.660 µg/mL | Quantity of Fulvestrant Diluted Run 2 (100 mg/mL ACD): 173.850 µg/mL | True Fulvestrant Concentration (100 mg/mL GCD in ddH2O): <0.010 mg/mL | Average Concentration (100 mg/mL GCD): <10.00 µg/mL | Quantity of Fulvestrant Diluted Run 1 (100 mg/mL GCD): <10.000 µg/mL | Quantity of Fulvestrant Diluted Run 2 (100 mg/mL GCD): <10.000 µg/mL | True Fulvestrant Concentration (100 mg/mL HPBCD in ddH2O): 0.483 mg/mL | Average Concentration (100 mg/mL HPBCD): 48.30 µg/mL | Quantity of Fulvestrant Diluted Run 1 (100 mg/mL HPBCD): 48.32 µg/mL | Quantity of Fulvestrant Diluted Run 2 (100 mg/mL HPBCD): 48.27 µg/mL | True Fulvestrant Concentration (100 mg/mL HPGCD in ddH2O): 0.107 mg/mL | Average Concentration (100 mg/mL HPGCD): 116.27 µg/mL | Quantity of Fulvestrant Diluted Run 1 (100 mg/mL HPGCD): 116.80 µg/mL | Quantity of Fulvestrant Diluted Run 2 (100 mg/mL HPGCD): 115.74 µg/mL | True Fulvestrant Concentration (100 mg/mL MBCD in ddH2O): 3.021 mg/mL | Average Concentration (100 mg/mL MBCD): 302.06 µg/mL | Quantity of Fulvestrant Diluted Run 1 (100 mg/mL MBCD): 302.12 µg/mL | Quantity of Fulvestrant Diluted Run 2 (100 mg/mL MBCD): 301.99 µg/mL | True Fulvestrant Concentration (100 mg/mL SBEBCD in ddH2O): 0.167 mg/mL | Average Concentration (100 mg/mL SBEBCD): 167.10 µg/mL | Quantity of Fulvestrant Diluted Run 1 (100 mg/mL SBEBCD): 167.7 µg/mL | Quantity of Fulvestrant Diluted Run 2 (100 mg/mL SBEBCD): 166.49 µg/mL | True Fulvestrant Concentration (150 mg/mL GCD in ddH2O): <0.010 mg/mL | Average Concentration (150 mg/mL GCD): <10.00 µg/mL | Quantity of Fulvestrant Diluted Run 1 (150 mg/mL GCD): <10.000 µg/mL | Quantity of Fulvestrant Diluted Run 2 (150 mg/mL GCD): <10.000 µg/mL | True Fulvestrant Concentration (150 mg/mL HPBCD in ddH2O): 0.937 mg/mL | Average Concentration (150 mg/mL HPBCD): 93.66 µg/mL | Quantity of Fulvestrant Diluted Run 1 (150 mg/mL HPBCD): 93.82 µg/mL
SMILES: C[C@]12CC[C@@H]3c4ccc(O)cc4C[C@@H](CCCCCCCCC[S+]([O-])CCCC(F)(F)C(F)(F)F)[C@H]3[C@@H]1CC[C@@H]2O (stereo partly drawn) [Fulvestrant, 7-alpha-[9-(4,4,5,5,5-pentafluoropentylsulphinyl)nonyl]estra-1,3,5-(10)-triene-3,17-beta-diol]
